Laboratory results published in patent publication US5486505A, “Polypeptide compounds having growth hormone releasing activity” (Polygen Holding Corporation, priority 1992, dated 1996).

Tested on: growth hormone (GH) release
Test: In vivo GH release in pentobarbital anesthetized rats (serum GH by RIA)
Parameters: species or system immature female Sprague-Dawley rats
Details: Table 4, control GH 181 ± 69
Protocol: Immature female Sprague-Dawley rats were obtained from the Charles River Laboratories (Wilmington, Mass.). After arrival they were housed at 25° C. with a 14:10 hour light:dark cycle. Water and Purina rat chow were available ad libitum. Pups were kept with their mothers until 21 days of age.
Twenty-six day old rats, six rats per treatment group, were anesthetized interperitoneally with 50 mg/Kg of pentobarbital 20 minutes prior to i. v. treatment with peptide. Normal saline with 0.1% gelatin was the vehicle for intravenous (i. v.) injections of the peptides. The anesthetized rats, weighing 55-65 grams, were injected i. v. with the quantity of growth hormone releasing compounds indicated in Tables 3 and 4. Injection was made as a 0.2 mL solution into the jugular vein.
All animals were sacrificed by guillotine 10 minutes after the final test injection (see Tables 3 and 4). Trunk blood for the determination of blood GH levels was collected following decapitation. After allowing the blood to clot, it was centrifuged and the serum was separated from the clot. […]
The mixed reagents are then typically incubated at room temperature (about 25° C.) for about 24 hours prior to addition of a second antibody (e.g., goat or rabbit anti-monkey gamma globulin serum) which binds to and causes precipitation of the complexed growth hormone antiserum. Precipitated contents of the RIA tubes are then analyzed for the number of counts in a specified period of time in a gamma scintillation counter. […] GH levels of unknowns are then determined by reference to the standard curve.
Serum GH was measured by RIA with reagents provided by the National Hormone and Pituitary Program.
Serum levels in Tables 3 and 4 are recorded in ng/mL in terms of the rat GH standard of 0.61 International Units/mg (IU/mg). Data is recorded as the mean +/- standard error of the mean (SEM). […]

## His--DCys(SMe)--Ala--Trp--DPhe--Lys--NH2
Total dose 1.0 μg i.v.
  GH Released: 193 ± 28 ng/mL
Total dose 3.0 μg i.v.
  GH Released: 180 ± 34 ng/mL
Total dose .3 μg i.v.
  GH Released: 178 ± 28 ng/mL
